36 compounds from ChEMBL document CHEMBL1201862, “PubChem BioAssay data set” (2004) can be followed below.

Structures are written as SMILES. Calls of active or inactive are those of the source. Bounds are passed on as bounds.

The target of one data set is Large T antigen (Simian virus 40, UniProt P03070). The data set is classed as functional, Betapolyomavirus macacae.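 Also: Confirmatory-stage PubChem screen for compounds that inhibit SV40 T antigen.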
Data set [1] deals with T1, Corticotropin-releasing factor receptor 2/Corticotropin-releasing factor-binding protein (Homo sapiens, UniProt P24387+Q13324).
T1 sequence (Q13324 whole entry): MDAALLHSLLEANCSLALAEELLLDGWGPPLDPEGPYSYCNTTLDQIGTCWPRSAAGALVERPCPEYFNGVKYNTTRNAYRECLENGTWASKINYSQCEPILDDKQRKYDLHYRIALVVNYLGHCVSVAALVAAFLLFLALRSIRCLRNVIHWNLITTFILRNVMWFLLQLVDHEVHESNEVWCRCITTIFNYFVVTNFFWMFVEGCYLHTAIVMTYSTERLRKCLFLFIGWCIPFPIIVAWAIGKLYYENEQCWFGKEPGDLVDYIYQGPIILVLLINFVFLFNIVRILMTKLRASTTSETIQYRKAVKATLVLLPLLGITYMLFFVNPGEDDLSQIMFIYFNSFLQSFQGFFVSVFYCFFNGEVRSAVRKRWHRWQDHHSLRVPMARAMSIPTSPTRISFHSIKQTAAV
T1 sequence (P24387 whole entry): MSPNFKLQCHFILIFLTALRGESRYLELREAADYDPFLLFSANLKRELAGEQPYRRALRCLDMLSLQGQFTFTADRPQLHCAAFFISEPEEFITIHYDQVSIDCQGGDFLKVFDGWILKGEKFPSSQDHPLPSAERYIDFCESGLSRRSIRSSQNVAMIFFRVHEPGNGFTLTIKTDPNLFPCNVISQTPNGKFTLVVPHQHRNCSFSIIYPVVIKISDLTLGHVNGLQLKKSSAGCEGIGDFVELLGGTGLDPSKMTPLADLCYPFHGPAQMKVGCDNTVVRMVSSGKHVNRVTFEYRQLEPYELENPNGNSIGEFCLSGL
In words: Dose Response confirmation of uHTS hits for small molecule antagonists of the CRF-binding protein and CRF-R2 receptor complex. It counts as functional. The following applies: read-out: IC50_Mean.

In data set [2] the target is T1, Corticotropin-releasing factor receptor 2/Corticotropin-releasing factor-binding protein. In words: activators of CRF receptor 2 with binding protein – uHTS hits, confirmation (AID 602473). The data set is classed as functional. Particulars: read-out: EC50_Mean.
The target of another data set is T2, Cytochrome P450 1A2 (Homo sapiens, UniProt P05177).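 Also: PubChem cytochrome P450 panel assay, CYP1A2 panel member.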
T2 sequence (P05177 whole entry): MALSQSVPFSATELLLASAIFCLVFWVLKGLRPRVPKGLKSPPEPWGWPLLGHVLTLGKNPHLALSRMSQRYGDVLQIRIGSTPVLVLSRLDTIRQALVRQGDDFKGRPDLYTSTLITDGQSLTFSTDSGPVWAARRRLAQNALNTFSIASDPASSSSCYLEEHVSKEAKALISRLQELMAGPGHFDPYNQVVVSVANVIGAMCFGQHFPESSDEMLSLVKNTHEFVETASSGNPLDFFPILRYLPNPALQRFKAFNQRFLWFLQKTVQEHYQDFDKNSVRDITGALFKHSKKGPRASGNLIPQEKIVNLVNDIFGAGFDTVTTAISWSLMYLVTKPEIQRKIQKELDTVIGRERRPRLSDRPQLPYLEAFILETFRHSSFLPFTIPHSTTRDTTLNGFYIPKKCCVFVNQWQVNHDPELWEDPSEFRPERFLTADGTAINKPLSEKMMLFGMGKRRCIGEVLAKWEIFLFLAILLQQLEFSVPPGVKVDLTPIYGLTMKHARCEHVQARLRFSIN

The target of another data set is Cytochrome P450 2C9 (Homo sapiens, UniProt P11712).
The target in data set [3] is FAD-linked sulfhydryl oxidase ALR (Homo sapiens, UniProt P55789). Nature of the data set: ALR-catalysed DTT oxidation blockers – biochemical, H2O2 detection, luminescence, cherry-pick, dose response (AID 493248).
Another data set concerns Vero. Nature of the data set: cells. The following applies: Chlorocebus sabaeus. It counts as functional.
Data set [4] in a line: cells. It counts as functional, cell-based.
The nature of data set [5]: cells. It counts as functional, cell-based. The source holds these as a separate data set.
The target in data set [6] is Heat shock protein HSP 90-alpha (Homo sapiens, UniProt P07900). It counts as functional, organism-based.
Data set [7] addresses Glyceraldehyde-3-phosphate dehydrogenase (Homo sapiens, UniProt P04406).
Data set [8] addresses T3, RNA-binding protein pos-1 (Caenorhabditis elegans, UniProt G5EF15).
T3 sequence (G5EF15 whole entry): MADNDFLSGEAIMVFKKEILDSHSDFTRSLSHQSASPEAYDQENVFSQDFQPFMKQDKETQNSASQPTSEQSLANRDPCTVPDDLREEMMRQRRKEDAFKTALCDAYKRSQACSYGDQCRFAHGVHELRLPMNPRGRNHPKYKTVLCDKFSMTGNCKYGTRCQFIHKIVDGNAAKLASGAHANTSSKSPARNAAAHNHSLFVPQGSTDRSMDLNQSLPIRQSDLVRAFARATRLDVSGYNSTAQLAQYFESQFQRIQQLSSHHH
In words: disruptors of C. elegans POS-1 RNA interaction – biochemical, fluorescence polarization, dose response (AID 1964).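 Also: purified POS-1 fused to maltose binding protein made in E. coli; potency of compounds blocking POS-1 binding to fluorescent RNA.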

Data set [9] concerns the target T4, Zinc finger protein mex-5 (Caenorhabditis elegans, UniProt Q9XUB2).
T4 sequence (Q9XUB2 whole entry): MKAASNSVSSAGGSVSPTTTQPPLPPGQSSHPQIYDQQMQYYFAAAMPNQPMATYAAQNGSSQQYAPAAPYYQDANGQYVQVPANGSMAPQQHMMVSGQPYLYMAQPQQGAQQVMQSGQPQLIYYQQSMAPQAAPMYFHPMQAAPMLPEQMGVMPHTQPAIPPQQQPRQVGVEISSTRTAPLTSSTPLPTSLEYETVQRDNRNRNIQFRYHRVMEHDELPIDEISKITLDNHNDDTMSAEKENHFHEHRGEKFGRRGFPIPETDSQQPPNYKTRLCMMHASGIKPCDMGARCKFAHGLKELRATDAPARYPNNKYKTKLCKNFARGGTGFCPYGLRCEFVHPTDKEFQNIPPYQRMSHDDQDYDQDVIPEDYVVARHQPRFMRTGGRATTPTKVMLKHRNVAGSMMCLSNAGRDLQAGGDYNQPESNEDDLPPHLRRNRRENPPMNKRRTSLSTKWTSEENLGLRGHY
In words: potency of MEX-5 RNA-binding blockers – biochemical, C. elegans, fluorescence polarization, dose response (AID 1960).

The nature of data set [10]: Trypanosoma cruzi growth suppression in host cells – NIH3T3 host cells, beta-gal luminescence, confirmation (AID 2044).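 Also: intracellular parasites grown in NIH/3T3 mouse fibroblasts as host cells; luminescent beta-galactosidase reporter signal from transgenic T. cruzi replicating inside host cells; inhibitors lower the luminescence signal.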 It counts as functional, cell-based.
The nature of data set [11]: NIH3T3 cell viability loss – ATP luminescence, mouse fibroblasts, counter-screen, dose response (AID 2010).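 Also: cells exposed to compound for about 90 hours before reading.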 The data set is classed as functional, cell-based.
The target of the next data set is Cytochrome P450 2C19 (Homo sapiens, UniProt P33261). Nature of the data set: Cytochrome panel assay with activity outcomes. Panel member name: p450-cyp2c19 Compounds with AC50 equal or less than 10 uM are considered active. It counts as functional. The following applies: read-out: AC50.
In a further data set the target is Cytochrome P450 2D6 (Homo sapiens, UniProt P10635).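 Also: CYP2D6 member of a cytochrome P450 panel assay.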
Data set [12] has as its target T5, Polyadenylate-binding protein 1 (Homo sapiens, UniProt P11940). In words: MLLE binding blockers, Cy5 peptide tracer – biochemical, fluorescence polarization, Cy5-PAM2 peptide, secondary, miRNA deadenylation inhibitor project, dose response (AID 602260). The data set is classed as functional. The following applies: read-out: IC50_Mean.
Data set [13] deals with T5, Polyadenylate-binding protein 1. In words: MLLE domain peptide-binding blockers, IC50 – biochemical, fluorescence polarization, FITC-PAM2 peptide, dose response (AID 602259). It counts as functional. Particulars: read-out: IC50_Mean.

FAD-linked sulfhydryl oxidase ALR, sequence (P55789 whole entry): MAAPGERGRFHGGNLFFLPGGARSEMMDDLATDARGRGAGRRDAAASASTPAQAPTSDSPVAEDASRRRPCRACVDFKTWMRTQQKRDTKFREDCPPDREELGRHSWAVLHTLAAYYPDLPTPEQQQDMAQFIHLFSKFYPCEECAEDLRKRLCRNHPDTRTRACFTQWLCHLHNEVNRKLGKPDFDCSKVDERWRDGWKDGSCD
Cytochrome P450 2C9, sequence (P11712 whole entry): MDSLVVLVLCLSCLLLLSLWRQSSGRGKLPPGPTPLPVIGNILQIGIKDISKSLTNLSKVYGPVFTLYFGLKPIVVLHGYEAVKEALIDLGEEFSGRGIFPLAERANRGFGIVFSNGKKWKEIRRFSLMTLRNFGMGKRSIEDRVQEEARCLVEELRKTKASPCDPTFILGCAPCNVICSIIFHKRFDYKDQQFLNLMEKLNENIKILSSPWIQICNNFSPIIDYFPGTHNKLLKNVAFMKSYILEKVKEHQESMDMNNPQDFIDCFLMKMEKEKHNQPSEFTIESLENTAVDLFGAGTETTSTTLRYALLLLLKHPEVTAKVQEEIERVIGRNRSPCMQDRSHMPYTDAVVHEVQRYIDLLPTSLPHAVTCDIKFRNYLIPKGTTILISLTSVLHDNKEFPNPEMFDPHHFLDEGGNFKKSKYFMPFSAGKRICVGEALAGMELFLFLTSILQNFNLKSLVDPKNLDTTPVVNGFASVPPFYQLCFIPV
Large T antigen, sequence (P03070 whole entry): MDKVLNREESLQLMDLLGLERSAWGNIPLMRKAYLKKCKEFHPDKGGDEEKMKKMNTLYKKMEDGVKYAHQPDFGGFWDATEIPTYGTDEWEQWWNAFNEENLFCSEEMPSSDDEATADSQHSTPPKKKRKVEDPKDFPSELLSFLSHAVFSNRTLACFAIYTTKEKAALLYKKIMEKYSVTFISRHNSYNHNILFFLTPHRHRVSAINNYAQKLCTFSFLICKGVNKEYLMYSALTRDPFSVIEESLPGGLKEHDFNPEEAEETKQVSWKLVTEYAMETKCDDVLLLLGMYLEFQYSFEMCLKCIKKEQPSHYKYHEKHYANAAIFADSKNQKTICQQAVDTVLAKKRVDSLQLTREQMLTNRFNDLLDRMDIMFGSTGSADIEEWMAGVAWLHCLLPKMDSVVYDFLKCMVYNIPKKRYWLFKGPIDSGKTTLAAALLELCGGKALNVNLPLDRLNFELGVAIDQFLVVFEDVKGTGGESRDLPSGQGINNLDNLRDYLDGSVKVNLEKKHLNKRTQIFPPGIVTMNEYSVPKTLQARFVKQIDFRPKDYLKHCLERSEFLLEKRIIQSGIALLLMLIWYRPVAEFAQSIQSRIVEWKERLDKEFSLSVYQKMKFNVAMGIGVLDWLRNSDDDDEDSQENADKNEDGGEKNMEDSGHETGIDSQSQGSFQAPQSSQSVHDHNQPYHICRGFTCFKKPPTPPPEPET
Cytochrome P450 2C19, sequence (P33261 whole entry): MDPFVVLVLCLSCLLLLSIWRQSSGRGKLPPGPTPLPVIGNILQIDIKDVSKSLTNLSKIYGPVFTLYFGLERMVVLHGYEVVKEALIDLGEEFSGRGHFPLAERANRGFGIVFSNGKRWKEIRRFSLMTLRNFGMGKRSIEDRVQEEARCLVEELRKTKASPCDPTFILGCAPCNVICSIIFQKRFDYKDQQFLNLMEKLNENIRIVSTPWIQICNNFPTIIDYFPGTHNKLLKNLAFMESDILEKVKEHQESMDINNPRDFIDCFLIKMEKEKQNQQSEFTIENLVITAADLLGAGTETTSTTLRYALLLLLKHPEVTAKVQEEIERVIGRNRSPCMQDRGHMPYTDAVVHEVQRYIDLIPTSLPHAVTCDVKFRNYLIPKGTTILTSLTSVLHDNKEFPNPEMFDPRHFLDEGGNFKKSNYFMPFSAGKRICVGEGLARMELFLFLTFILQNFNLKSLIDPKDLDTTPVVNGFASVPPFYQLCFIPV
Glyceraldehyde-3-phosphate dehydrogenase, sequence (P04406 whole entry): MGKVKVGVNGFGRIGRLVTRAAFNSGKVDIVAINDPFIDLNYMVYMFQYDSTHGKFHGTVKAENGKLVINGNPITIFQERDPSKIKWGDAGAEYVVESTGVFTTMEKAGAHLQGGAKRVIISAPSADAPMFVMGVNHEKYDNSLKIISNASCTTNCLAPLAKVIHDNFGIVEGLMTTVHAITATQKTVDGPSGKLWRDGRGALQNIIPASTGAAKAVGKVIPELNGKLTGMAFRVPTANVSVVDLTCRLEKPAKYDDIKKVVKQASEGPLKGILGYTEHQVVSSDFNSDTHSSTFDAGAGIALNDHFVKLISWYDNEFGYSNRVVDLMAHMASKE
T5 sequence (P11940 whole entry, the tested form may be a part): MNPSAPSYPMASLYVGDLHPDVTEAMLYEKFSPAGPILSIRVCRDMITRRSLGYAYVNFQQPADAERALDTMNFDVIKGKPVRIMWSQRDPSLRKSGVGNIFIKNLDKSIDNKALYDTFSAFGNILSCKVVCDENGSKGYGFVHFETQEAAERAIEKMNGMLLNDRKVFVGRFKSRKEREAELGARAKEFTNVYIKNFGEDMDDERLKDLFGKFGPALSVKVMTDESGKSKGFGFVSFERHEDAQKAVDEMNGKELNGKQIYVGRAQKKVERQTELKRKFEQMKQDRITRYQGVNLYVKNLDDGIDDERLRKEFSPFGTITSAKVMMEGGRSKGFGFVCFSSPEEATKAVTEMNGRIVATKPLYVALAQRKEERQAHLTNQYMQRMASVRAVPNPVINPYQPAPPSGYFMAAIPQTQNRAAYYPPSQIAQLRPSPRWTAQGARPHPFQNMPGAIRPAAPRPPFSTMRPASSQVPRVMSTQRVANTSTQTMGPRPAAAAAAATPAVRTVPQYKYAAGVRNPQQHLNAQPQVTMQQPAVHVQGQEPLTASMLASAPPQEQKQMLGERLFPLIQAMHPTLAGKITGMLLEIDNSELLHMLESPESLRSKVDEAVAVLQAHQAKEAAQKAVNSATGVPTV
Cytochrome P450 2D6, sequence (P10635 whole entry): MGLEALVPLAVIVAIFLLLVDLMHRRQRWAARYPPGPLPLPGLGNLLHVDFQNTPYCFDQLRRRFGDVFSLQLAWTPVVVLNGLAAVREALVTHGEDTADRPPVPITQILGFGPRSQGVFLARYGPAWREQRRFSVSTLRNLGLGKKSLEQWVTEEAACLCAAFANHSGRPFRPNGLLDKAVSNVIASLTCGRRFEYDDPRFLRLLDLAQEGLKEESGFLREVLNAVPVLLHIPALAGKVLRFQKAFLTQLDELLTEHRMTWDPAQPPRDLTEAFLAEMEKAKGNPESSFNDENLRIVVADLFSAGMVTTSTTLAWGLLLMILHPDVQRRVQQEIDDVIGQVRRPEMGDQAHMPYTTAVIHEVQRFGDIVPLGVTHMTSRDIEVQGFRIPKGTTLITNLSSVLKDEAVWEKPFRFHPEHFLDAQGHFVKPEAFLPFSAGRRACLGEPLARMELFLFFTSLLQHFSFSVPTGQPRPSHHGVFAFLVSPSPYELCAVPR

`CCOC(=O)C1=C(O)/C(=C/c2cccc(OC)c2O)N=C1C`: the IC50 on Large T antigen was 16.4 µM (active).
On to `CCC(C)N(C(=O)COC(=O)/C=C/c1ccc(O)c(OC)c1)C1CCS(=O)(=O)C1` (centres undefined), for which the IC50 on Large T antigen was 11.4 µM (active).
As to `COc1ccccc1OCC(=O)NNC(=O)c1cnccn1`, the IC50 in data set [1] was > 47.1 µM (inactive). Moreover, the EC50 in [2] is > 53 µM (inactive). The concentration at half-maximal activity (AC50) is 17.8 µM (inconclusive) at Cytochrome P450 1A2 and “inconclusive” on Cytochrome P450 2C9.
As for `COC(=O)CNc1c(-c2ccccc2)nc2ccc(Br)cn12`, the AC50 in data set [3] was 1.08 µM (active).
As for `COc1ccc([C@@]2(C(C)C)ON(c3ccccc3C(F)(F)F)C2=O)cc1`, in the data set with Vero, the CC50 was > 25 µM (active).
Turning to `COc1ccc(OC)c2nc(O)c(CCNC(=O)COc3ccccc3)cc12`, the AC50 result at Cytochrome P450 2C9 is recorded as “inconclusive”.
On to `COc1cccc(OCc2cc(C(=O)N3CCN(c4ccccc4OC)CC3)no2)c1`, for which the EC50 in the data set “cells [4]” is > 350 µM (not active); in “cells [5]”, 66.7 µM (active).
Turning to `COC(=O)[C@H](CCSC)NC(=O)C/C=C\[C@@H](C)CO`, the concentration at half-maximal activity (AC50) entry on Cytochrome P450 2C9 is recorded as “inconclusive”.
On to `COc1ccc(N(C(=O)c2ccncc2)S(=O)(=O)c2ccc(Cl)cc2)cc1`, for which, in [6], the concentration at half-maximal activity (AC50) is 0.354 µM (active).
As to `Cc1ccc(S(=O)(=O)Nc2ccc(O)c(C(=O)O)c2)c(C)c1`, the IC50 in [7] is reported as > 100 µM (not active).
Turning to `Cc1ccc(C[S+]([O-])Cc2ccc(C(=O)N3CCN(c4ccccc4)CC3)o2)cc1` (centres undefined), the EC50 was > 300 µM (not active) in data set [8], > 300 µM (not active) in [9], 7.61 µM (active) in data set [10] and 33.2 µM (active) in data set [11]. For the same compound, the AC50 in data set [3] was 5.92 µM (active).
As for `O=S(=O)(/C=C/c1ccccc1)NC1CCCCCC1`, in data set [6], the concentration at half-maximal activity (AC50) was 10.5 µM (active).
Regarding `O=C(CC1CCCCC1)Nc1nc[nH]n1`, the IC50 in data set [7] is > 10 µM (inconclusive).
For `NS(=O)(=O)c1ccc(-c2ccc(C=C3C(=O)NC(=S)NC3=O)o2)cc1`, the IC50 at Large T antigen is 10.5 µM (active).
Regarding `O=C(O)C1CSC(c2coc3ccccc3c2=O)N1` (centres undefined), the concentration at half-maximal activity (AC50) in data set [3] is 0.083 µM (active).
Consider `O=C(NCc1ccccc1)C(=O)c1cn(CC(=O)N2CCOCC2)c2ccccc12`, for which the EC50 in the data set “cells [4]” and in “cells [5]” was > 350 µM (not active) throughout.
For `Cc1ccc2cc3c(N)[nH]nc3nc2c1`, at Large T antigen, the IC50 is 13.1 µM (active).
On to `COc1cccc(C2=NOC(C(=O)Nc3ccc(OC)c(OC)c3)C2)c1` (centres undefined), for which the AC50 on Cytochrome P450 2C19 was 25.1 µM (inconclusive); on Cytochrome P450 2C9, “inconclusive”.
On to `Cc1ccc(-c2nc(C#N)c(NCCN3CCCCC3)o2)cc1`, for which the AC50 in [3] is 4.4 µM (active).
For the compound `Cn1c(=O)c2cc(S(=O)(=O)NCCC(=O)N3CC=C(c4ccccc4)CC3)ccc2n(C)c1=O`, the concentration at half-maximal activity (AC50) is 25.1 µM (inconclusive) on Cytochrome P450 2C19, 17.8 µM (inconclusive) at Cytochrome P450 2D6, 31.6 µM (inconclusive) at Cytochrome P450 1A2 and “inconclusive” on Cytochrome P450 2C9.
As to `c1ccc(-n2cnc3cc(NCc4ccccn4)ccc32)cc1`, the AC50 in data set [3] is 1.17 µM (active).
Turning to `CCNc1ncc2ncc(=O)n(C3CC3)c2n1`, the AC50 entry on Cytochrome P450 2C9 is on record as “inconclusive”.
In the case of `COc1ccc(C2(C)NC(=O)NC2=O)cc1OC` (centres undefined), the EC50 is > 350 µM (not active) in the data set “cells [4]” and 116 µM (active) in “cells [5]”.
On to `NC(=S)c1cnn2c(-c3cccc(C(F)(F)F)c3)ccnc12`, for which the IC50 in data set [12] and in data set [13] was > 66 µM (inactive) each time.
For `O=C(O)c1cscc1Cc1cccs1`, the AC50 entry on Cytochrome P450 2C9 is on record as “inconclusive”.
For the compound `O=C(O)c1ccccc1C(=O)Nc1ccc(-c2csc(-c3ccccc3)n2)cc1`, in [3], the AC50 was 0.218 µM (active).
For the compound `Cc1nnc(Nc2ccc(O)cc2)nc1O`, the IC50 on Large T antigen was 33 µM (active).
Regarding `C=CCNC(=O)c1onc(CSc2cc(C)ccc2C)c1C(=O)O`, in [3], the AC50 was 4.81 µM (active).
Take `COc1ccc(C(=O)Nc2ccc(Cl)cn2)cc1Cl`: at Cytochrome P450 2C9, the AC50 entry was “inconclusive”.
With `CN1CCC2(CC1)N=C(c1ccc(F)cc1)C(=S)N2C(=O)c1ccc(C(C)(C)C)cc1`, the EC50 was > 350 µM (not active) in the data set “cells [4]” and 73.9 µM (active) in the data set “cells [5]”.
Turning to `C[C@@H]1CC[C@H](Cc2ccc(-n3cccc3)cc2)N1C(=O)OC(C)(C)C`, the CC50 in the data set on Vero was > 25 µM (active).
For the compound `OCCOCCn1c(C2CCCN2c2nc(-c3ccc(F)cc3)cs2)nc2cc(C(F)(F)F)ccc21` (centres undefined), in data set [6], the AC50 is 7.57 µM (active).
On to `COc1ccc(Nc2nc(N/N=C/c3ccc(N(C)C)cc3)nc(C)c2[N+](=O)[O-])cc1`, for which the EC50 in the data set “cells [4]” and in the data set “cells [5]” was > 350 µM (not active) in each case.
With `C/C(=N/NS(=O)(=O)c1cccc([N+](=O)[O-])c1)c1c[nH]c2ccccc12`, the IC50 on Large T antigen was 17 µM (active).
Turning to `COc1ccc(/C=N/NC(=O)c2ccccc2O)cc1CSc1ccccn1`, the EC50 in the data set “cells [4]” and in “cells [5]” was > 350 µM (not active) throughout.
`Cc1cccc(N2C(=O)C=CC2=O)c1`: in data set [6], the half-maximal activity concentration (AC50) was 1.63 µM (active).
